Test results: patent US11541063B2, “Compositions and products for use in the treatment of bone fractures and defects” (priority 2014, dated 2023)
Where two headings read alike, the source gives them in different places.

Tested on: MC3T3-E1 cells
Conditions: alendronate only (0 nM Stanolone), MC3T3 cells stimulated for 10 days
Protocol: MC3T3-E1 (ECACC, Acc. No. 99072810) were cultured in α-MEM (Invitrogen, Carlsbad, Calif.) supplemented with 100 U/ml penicillin, 100 ug/ml streptomycin (Invitrogen, Carlsbad, Calif.) and 5% fetal bovine serum (Hyclone, GE Healthcare). Cells were grown under standard conditions (37° C., 5% CO2 and 95% humidity). MC3T3-E1 cells were seeded at a density of 26000 cells/cm2 and seeding of the cells was considered as the day 0 timepoint. On day 1 post-plating, the medium of the MC3T3-E1 cells was replaced with osteogenic medium (the above-mentioned media supplemented with 50 μg/ml Ascorbic Acid (Sigma)), 10 nM β-glycerol phosphate (Sigma) and on day 3 post-plating, hormones or vehicle (0.1% ethanol) were added.
Cells were lysed for 10 minutes with lysisbuffer (100 mM Potassium phosphate, 0.2% Triton X-100, pH 7.8 containing protease inhibitor cocktail (Roche)). […] The luminescence (1 second) was measured with a Filtermax F5 (Molecular Devices).
The acidic phosphatase activity of the cells was determined by adding freshly prepared p-NPP buffer (4-nitrophenyl phosphate (Sigma) in 0.1 M NaAc+0.1% Triton X-100, pH5.5) to the cell lysates and incubated for 1.5 hrs at 37° C. and 5% CO2. […] The absorbance was measured at 405 nm with a Filtermax F5 (Molecular Devices). […]

## NCCCC(O)(P(=O)(O)O)P(=O)(O)O [alendronate]
50 μM
  ALP/AP activity: decreases
2 and 10 μM
  ALP/AP activity: small increase
